Assay results published in patent US12303490B2, “Compositions and methods for suppressing and/or treating neurodegenerative diseases and/or a clinical condition thereof” (CK Regeon Inc., priority 2019, dated 2025).

How the values were obtained:
[1] = tested on: CXXC5-DVL interaction; test: In vitro CXXC5-DVL PPI inhibition (binding) assay, library screening; details: compound 30 μM; FITC-tagged PTD-DBMP and DVL-PDZ domain; fluorescence intensity
Description: Screening for compounds that inhibit the CXXC5-DVL interaction. […] CELL. DEATH. DIFFER. […] Briefly, 5 mg/ml purified DVL-PDZ domain was incubated in each well of a 96-well Maxibinding Immunoplate (SPL, Seoul, Korea) at 4° C. for 16 h. After the addition of 10 μM FITC-tagged PTD-DBMP to each well, each compound in the chemical library or control (DMSO) was treated to the well at a final concentration of 30 μM. The fluorescence intensity was measured using a Fluorstar Optima microplate reader (BGM Lab Technologie, Ortenberg, Germany) and normalized as follows: “(‘compounds-treated group’−‘blank’)/(‘DMSO-treated control’−‘blank’)*100”.

[2] = tested on: β-catenin, CXXC5 and p-GSK3β (S9) in H4/SWE cells; test: Western blot assay in H4/SWE cells; assay type: cell-based; details: FIG. 9A
Description: Western blot assay. H4 and H4/SWE Cells were ground with a mortar and pestle before lysis in RIPA buffer (150 mM NaCl, 10 mM Tris, pH 7.2, 0.1% SDS, 1.0% Triton X-100, 1% sodium deoxycholate, and 5 mM EDTA). Samples were separated on 6-12% SDS polyacrylamide gels and transferred onto PROTRAN nitrocellulose membranes (Schleicher and Schuell Co.). The membranes were blocked with PBS containing 5% non-fat dry skim milk and 0.07% (vol/vol) Tween 20 and incubated with antibody specific for β-catenin (1:1,000, Santa Cruz Biotechnology, Inc.), CXXC5 (1:500, Santa Cruz Biotechnology, Inc.), p-GSK3β(S9) (1:500, Santa Cruz Biotechnology, Inc.). The membranes were then incubated with horseradish peroxidase-conjugated anti-rabbit (1:5,000, Bio-Rad Laboratories) or anti-mouse (1:5000, Cell Signaling Technology) IgG secondary antibody. Protein bands were visualized with enhanced chemiluminescence (GE Healthcare) using a luminescent image analyzer, LAS-3000 (Fujifilm). Western blot bands were analyzed using Multi-Gauge V3.0 software (Fujifilm).

[3] = tested on: Wnt/β-catenin pathway; test: pTOPFlash reporter assay in HEK293 cells; details: HEK293 cells harboring the pTOPFlash reporter
[4] = tested on: GLP-1 and other Wnt/β-catenin signaling target genes (Tcf712, Axin2, Dvl1, Wisp1, Fosl1); test: qPCR of GLP-1 and other Wnt/β-catenin signaling target genes in epiWAT of HFD-mice; assay type: in vivo; details: phenotypes as observed in HFD-fed Cxxc5−/− mice, FIG. 2C
Description: Quantitative real-time polymerase chain reaction (PCR). Total RNA was extracted from ground tissue powder using TRIzol reagent (Invitrogen) according to the manufacturer's instructions. Reverse transcription was performed with M-MLV reverse transcriptase (Invitrogen) using 2 μg of total RNA. Synthesized cDNA was diluted to a concentration of 100 ng/μl. Quantitative PCR analyses were performed in the Rotor-gene Q real-time PCR cycler (Qiagen) using SYBR green reagent (Qiagen) with conditions of 95° C. for 10 min followed by 40 cycles at 95° C. for 5 s and 60° C. for 15 s. Relative quantification of mRNA levels was estimated using the comparative Ct method (ΔΔCt). Glp-1 mRNA values were normalized with respect to GAPDH.
(§1) Animals. The generation of Cxxc5^−/− mice has been described previously. Cxxc5 heterozygous mice were intercrossed for four generations to obtain littermate wild-type and Cxxc5^−/− mice and were maintained on a C57BL/6 background. Six-week-old Cxxc5^+/+ and Cxxc5^−/− mice were fed HFD for 8 weeks. Wild-type male C57BL/6 mice (KOATECH, Seoul, Korea) were fed HFD consisting of 60% calories from fat (Research Diet, D12492) for 8 weeks. To validate that the insulin resistance mouse model was successfully established, fasting glucose levels were assessed with a One Touch Ultra glucometer (LifeScan). […]

[5] = tested on: serum active GLP-1; test: Serum active GLP-1 in NASH mouse models (STZ-induced, MCD-induced); assay type: in vivo, mice; details: FIG. 6A-6B
Description: FIG. 6A. Graph illustrating the serum active GLP-1 levels in NCD-mice (“Chow”) and RFD-fed, STZ-induced NASH mice that were treated with vehicle, A3334, A3051, selonsertib, and ocaliva.
FIG. 6B. Graph illustrating the serum active GLP-1 levels in NCD-mice (“Chow”) and RFD-fed, methionine-choline deficient diet (MCD)-induced NASH mice that were treated with vehicle, A3334, A3051, selonsertib, ocaliva (“OCA”), and A3486.
(§2) Blood chemistry. Total blood of mice was collected by cardiac puncture. The blood was allowed to clot for 30 min and was then centrifuged for 30 min at 3,000×g to obtain supernatant to measure active GLP-1 concentration. ELISA assay kits were used to assess serum active GLP-1 (7-36).

[6] = tested on: serum active GLP-1; test: Serum active GLP-1 ELISA in HFD-mice; assay type: in vivo; details: compared with mice fed on NCD, FIG. 4A
Description: as §2
as §1, with “(LifeScan). Subsequently, each HFD-fed mouse with a fasting glucose level higher than 16.7 mmol/L was orally administered A3334 (25 mg kg^−1), sitagliptin (50 mg kg^−1), or metformin (100 mg kg^−1) each day for 5 days at weeks 8 and 12. After the removal of the drugs, mice were maintained for 3 weeks on the HFD. To monitor pancreas regeneration, six-week-old Cxxc5^+/+ and Cxxc5^−/− mice were fed an HFD as above.” for “(LifeScan).”

[7] = tested on: serum active GLP-1; test: Serum active GLP-1 ELISA in HFD-fed, STZ-induced diabetes mice; assay type: in vivo
Description: as §2
as §1, with “(LifeScan). Subsequently, each HFD-fed mouse with a fasting glucose level higher than 16.7 mmol/L was orally administered A3334 (25 mg kg^−1), sitagliptin (50 mg kg^−1), or metformin (100 mg kg^−1) each day for 5 days at weeks 8 and 12. After the removal of the drugs, mice were maintained for 3 weeks on the HFD. To monitor pancreas regeneration, six-week-old Cxxc5^+/+ and Cxxc5^−/− mice were fed an HFD as above.” for “(LifeScan).”

[8] = tested on: β-catenin in H4/SWE cells; test: Immunocytochemical analysis of β-catenin in H4/SWE cells; assay type: cell-based; details: FIG. 9B
Description: Immunocytochemical analysis. H4 or H4/SWE cells treated with each compound were washed with PBS and fixed in 4% (wt/vol) paraformaldehyde (PFA) in PBS for 15 min at room temperature. The cells were then washed with PBS and permeabilized with 0.1% (vol/vol) Triton X-100 in PBS for 15 min. After washing with PBS, the cells were incubated with 10% bovine serum albumin (BSA) in PBS for 30 min and then with antibodies specific for β-catenin (1:100; BD) overnight at 4° C. The cells were washed in PBS and incubated with Alexa Fluor 488—conjugated IgG secondary antibody (1:400; Molecular Probes) at room temperature for 1 h. Cell nuclei were counterstained with DAPI for 10 min and the stained samples were examined under a LSM510 META microscope.

[9] = tested on: secreted human amyloid β-42 in H4/SWE cells; test: Human Aβ42 ELISA assay in H4/SWE cells; assay type: cell-based; details: 24 h, FIG. 10
Description: Human Aβ42 ELISA assay. H4 or H4/SWE cells were cultured in Dulbecco's Modified Eagle's Medium (DMEM, Gibco) containing 10% fetal bovine serum (FBS) and grown to confluence in a 5% CO2 and 95% air humidified atmosphere. The cells were seeded in 6-well plate in DMEM supplemented with 10% FBS and allowed to adhere overnight. The cells were treated with each compound (1˜20 uM) for 24 h and collected in 1 ml of medium. The samples were treated with protease inhibitor cocktail (PIC) to avoid the degradation of Amyloid β by protease and centrifuged at 3000 rpm for 3 min. Experiments were performed according to the guidance of Human Aβ42 ELISA Kit protocol (Invitrogen). The amount of secreted Amyloid β was normalized by measuring total protein concentration.

**Q.** With `Br.CN1CCc2cc(O)cc3c2[C@H]1Cc1ccc(O)c(O)c1-3` [Compound 9] as the compound, how does the “CXXC5-DVL inhibitory activity (%)” value [1] read?
**A.** Its value is 89.41%.

**Q.** Which “level of β-catenin (western blot)” value [2] does the source give for `O=C1Nc2cc(Br)ccc2/C1=C1/Nc2ccccc2/C1=N\O` [Compound 8, 6-Bromoindirubin-3′-oxime, reference compound] here?
**A.** The value was “restored”.

**Q.** And the “p-GSK3β (S9) (western blot)” value [2]?
**A.** Its value is “increased”.

**Q.** And the “activation of Wnt/β-catenin pathway (reporter assay)” value [3]?
**A.** Its value is “showed effectiveness”.

**Q.** `CN(C)c1ccc(O)c2c1C[C@H]1C[C@H]3[C@H](N(C)C)C(O)=C(C(N)=O)C(=O)[C@@]3(O)C(O)=C1C2=O.Cl` [Compound 16] was tested. Which “CXXC5-DVL inhibitory activity (%)” value [1] did it give?
**A.** The value was 87.9%.

**Q.** `O=C1Nc2ccccc2/C1=C1/Nc2ccccc2C1=O` [Indirubin, reference compound] was tested. Which “level of β-catenin (western blot)” value [2] did it give?
**A.** Its value is “restored”.

**Q.** And the “p-GSK3β (S9) (western blot)” value [2]?
**A.** The value was “increased”.

**Q.** How did the “CXXC5-DVL inhibitory activity (%)” value [1] turn out when `Oc1cc(O)cc(/C=C/c2ccc(O)c(O)c2)c1` [Compound 17] was run?
**A.** Its value is 85.25%.

**Q.** With `O=c1c(O)c(-c2ccc(O)cc2O)oc2cc(O)cc(O)c12` [Compound 15] as the compound, how does the “CXXC5-DVL inhibitory activity (%)” value [1] read?
**A.** The value was 85.41%.

**Q.** Which “relative expression levels of GLP-1 and other Wnt/β-catenin signaling target genes in epiWAT” value [4] does the source give for `N[C@@H](CC(=O)N1CCn2c(nnc2C(F)(F)F)C1)Cc1cc(F)c(F)cc1F` [sitagliptin, reference compound] here?
**A.** Its value is “did not”.

**Q.** How did the “active GLP-1 expression in blood serum” value [5] turn out when `Cc1cc(F)c(C(=O)Nc2cccc(-c3nncn3C(C)C)n2)cc1-n1cnc(C2CC2)c1` [selonsertib, reference compound] was run?
**A.** The value was “did not have any effect”.

**Q.** Which “CXXC5-DVL inhibitory activity (%)” value [1] does the source give for `CCN(CC)S(=O)(=O)c1ccc(OC)c(Nc2cc(-c3ccccc3)nc(C)n2)c1` [Compound 6] here?
**A.** The value was 58.24%.

**Q.** How did the “CXXC5-DVL inhibitory activity (%)” value [1] turn out when `CC(N)(Cc1ccc(O)c(O)c1)C(=O)O` (stereo not drawn) [Compound 14] was run?
**A.** The value was 85.22%.

**Q.** `O=C(O)C1Sc2[nH]c(=O)sc2C2c3cc(Br)cc(Br)c3OC(=O)C12` (stereo not drawn) [Compound 5] was tested. Which “CXXC5-DVL inhibitory activity (%)” value [1] did it give?
**A.** The value was 90.48%.

**Q.** `COc1ccc(C2CC(C(F)(F)F)n3ncc(C(=O)O)c3N2)cc1OC` (stereo not drawn) [Compound 2] was tested. Which “CXXC5-DVL inhibitory activity (%)” value [1] did it give?
**A.** The value was 90.63%.

**Q.** For `Cc1cc(C)c2c(O)nc(SCC(=O)c3ccc(O)c(O)c3)nc2n1` [Compound 3], which “CXXC5-DVL inhibitory activity (%)” value [1] is on record?
**A.** Its value is 88.19%.

**Q.** Which “relative expression levels of GLP-1 and other Wnt/β-catenin signaling target genes in epiWAT” value [4] does the source give for `COc1ccc2c(c1)/C(=C1/Nc3ccccc3/C1=N\O)C(=O)N2` [Compound A3334, 5-Methoxyindirubin-3′-oxime] here?
**A.** The value was “restored the phenotypes”.

**Q.** And the “serum active GLP-1 levels” value [6]?
**A.** The value was “restored”.

**Q.** And the “serum active GLP-1 levels” value ([7]; STZ-induced diabetic HFD-mice, compared with mice fed on NCD, FIG. 4B)?
**A.** The value was “restored”.

**Q.** And the “active GLP-1 expression in blood serum compared to the sitagliptin treatment” value ([7]; compared to the effect of sitagliptin (positive control))?
**A.** Its value is “significantly rescued (increased)”.

**Q.** What about the “active GLP-1 expression in blood serum” value [5] of the same compound?
**A.** Its value is “significantly rescued (increased)”.

**Q.** What about the “level of CXXC5 (western blot)” value [2] of the same compound?
**A.** The value was “decreased”.

**Q.** And the “level of β-catenin (western blot)” value [2]?
**A.** The value was “restored”.

**Q.** And the “p-GSK3β (S9) (western blot)” value [2]?
**A.** Its value is “increased”.

**Q.** What about the “nuclear translocation of β-catenin” value [8] of the same compound?
**A.** The value was “increased”.

**Q.** And the “secretion of Aβ-42” value [9]?
**A.** Its value is “inhibited”.

**Q.** `COc1ccc(C2CC(=O)C3=C(C2)Nc2onc(C)c2C3c2ccc(O)c(O)c2)cc1OC` (stereo not drawn) [Compound 7] was tested. Which “CXXC5-DVL inhibitory activity (%)” value [1] did it give?
**A.** The value was 90.87%.

**Q.** How did the “CXXC5-DVL inhibitory activity (%)” value [1] turn out when `NC(Cc1cc(O)c(O)cc1O)C(=O)O` (stereo not drawn) [Compound 10] was run?
**A.** The value was 90.32%.

**Q.** For `Cl.O=C(OCCN1CCOCC1)C1(c2ccccc2)CCCCC1` [Compound 18], which “CXXC5-DVL inhibitory activity (%)” value [1] is on record?
**A.** The value was 86.81%.

**Q.** With `COC(=O)C1=C(C)N/C(=C/c2cc(C)n(-c3ccccc3F)c2C)C1=O` [Compound 4] as the compound, how does the “CXXC5-DVL inhibitory activity (%)” value [1] read?
**A.** Its value is 87.58%.

**Q.** How did the “CXXC5-DVL inhibitory activity (%)” value [1] turn out when `O=c1cc(O)cc(/C=C/c2ccc(O)c(O)c2)o1` [Compound 11] was run?
**A.** The value was 90.05%.

**Q.** For `O=c1c(O)c(-c2cc(O)c(O)c(O)c2)oc2cc(O)cc(O)c12` [Compound 13], which “CXXC5-DVL inhibitory activity (%)” value [1] is on record?
**A.** The value was 85.22%.

**Q.** For `O=C1Nc2ccccc2/C1=C1/Nc2ccccc2/C1=N\O` [Compound 12, Indirubin-3′-oxime, reference compound], which “CXXC5-DVL inhibitory activity (%)” value [1] is on record?
**A.** Its value is 89%.

**Q.** What about the “level of β-catenin (western blot)” value [2] of the same compound?
**A.** Its value is “restored”.

**Q.** And the “p-GSK3β (S9) (western blot)” value [2]?
**A.** Its value is “increased”.

**Q.** What about the “activation of Wnt/β-catenin pathway (reporter assay)” value [3] of the same compound?
**A.** The value was “showed effectiveness”.
